The values that follow are results of earlier work, collected in paper PMC6435658, “Investigation into the Molecular Mechanisms underlying the Anti-proliferative and Anti-tumorigenesis activities of Diosmetin against HCT-116 Human Colorectal Cancer” (Scientific Reports, 2019).

In brackets after ≈: the same amount, converted by molar mass.

The subject of this data set is MCF-10. Set-up: method as in PMID 19424633, PMID 27176768, PMID 26847170, PMID 20183323. To be noted: MCF-10 non-cancerous cells, 24 h; ref [10],[13],[15],[47]; cited from earlier work.

As for `COc1ccc(-c2cc(=O)c3c(O)cc(O)cc3o2)cc1O` [Dis, Diosmetin], the IC50 is 30 µg/mL (≈ 99.9 µM).

Usually IC50 stands for the concentration that gives 50% inhibition.
